Holding throughout (test): NCI anticancer screen, dose series, 48 h
The test system of assay [1] is ACHN.
Assay [2] relates to COLO 205.
In assay [3] the test system is DU-145.
The subject of assay [4] is EKVX.
In assay [5] the test system is HCC 2998.
Assay [6] concerns HCT-15.
For assay [7], the system named is HT-29.
Assay [8] relates to K562.
Assay [9] relates to LOX IMVI.
Assay [10] has as its system NCI-H460.
Assay [11] has as its system PC-3.
For assay [12], the system named is SK-OV-3.
For assay [13], the system named is SN12C.
The subject of assay [14] is SR.
The subject of assay [15] is UO-31.
The subject of assay [16] is SF-539.
The test system of assay [17] is CAKI-1.
Assay [18] has as its system SK-MEL-2.
Assay [19] relates to UACC-62.
In assay [20] the test system is RXF 393.

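Results reflect a 48-hour exposure of cells in 96-well plates to compound at five concentrations. The concentration for 50% growth inhibition is given as GI50.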 Active and inactive are the calls of the source. Rule as the data show it: active = GI50 up to about 1.1 µM and inactive = higher. Non-standard residues stand in square brackets, D forms with d. Residues, ends and D or L forms follow the SMILES beside them. ξ: configuration not given here. *: point of attachment. ξF = NC(Cc1ccccc1)C(=O)O; Cbz = O=C(OCc1ccccc1)*

On to `CCOC(=O)CNC(=O)C(Cc1ccccc1)NC(=O)OCc1ccccc1` (configuration not stated) (Cbz-[ξF]-Gly-OEt), for which the GI50 was > 100 µM (inactive) in assay [1]; > 100 µM (inactive) in assay [2]; > 100 µM (inactive) in [3]; > 100 µM (inactive) in [4]; > 100 µM (inactive) in assay [5]; above 100 µM in assay [6]. The GI50 in assay [7], in assay [8], in assay [9], in [10], in assay [11] and in [12] was > 100 µM (inactive) throughout. For the same compound, the GI50 in assay [13], in [14] and in assay [15] was > 100 µM (inactive) in each case.
Regarding `Nc1nc(NNc2ccccc2F)cc(=O)[nH]1`, the GI50 in assay [1] was > 100 µM (inactive); in [2], 97.1 µM (inactive); in assay [3], > 100 µM (inactive); in assay [4] it was > 100 µM (inactive); in assay [5], > 100 µM (inactive); in assay [6], above 100 µM. The GI50 was > 100 µM (inactive) in assay [7]; 58.6 µM (inactive) in [8]; 42 µM (inactive) in assay [9]; > 100 µM (inactive) in assay [10]; > 100 µM (inactive) in assay [11]; > 100 µM (inactive) in [16]. Further, the GI50 in assay [13], in assay [14] and in assay [15] was > 100 µM (inactive) each time.
Take `CC(C)(CO)NC(=O)c1cccs1`: the GI50 in [1], in assay [17], in assay [2], in assay [3], in assay [4] and in [5] was > 100 µM (inactive) in each case. The GI50 in assay [6] is above 100 µM; in assay [7], > 100 µM (inactive); in assay [8], > 100 µM (inactive); in assay [9] it was > 100 µM (inactive); in assay [10], > 100 µM (inactive); in assay [11] it was > 100 µM (inactive). Moreover, the GI50 in assay [18], in [12], in assay [13], in assay [14], in assay [19] and in assay [15] was > 100 µM (inactive) in each case.
Turning to `O=c1cc(N2CCN(c3cc(=O)n4ccccc4n3)CC2)oc2ccccc12`, the GI50 in assay [1] is > 100 µM (inactive); in assay [17], 34 µM (inactive); in assay [2] it was 61 µM (inactive); in assay [3], > 100 µM (inactive); in [4], 31.2 µM (inactive); in assay [5], 33.5 µM (inactive). Also, the GI50 is 30.6 µM in assay [6]; 38 µM (inactive) in [7]; 47.1 µM (inactive) in [8]; > 100 µM (inactive) in [9]; 26.6 µM (inactive) in assay [10]; > 100 µM (inactive) in assay [11]. Further, the GI50 was 36.1 µM (inactive) in assay [20]; > 100 µM (inactive) in assay [16]; > 100 µM (inactive) in assay [18]; > 100 µM (inactive) in assay [12]; > 92.7 µM (inactive) in [13]; > 100 µM (inactive) in assay [19]. Also, in assay [15], the GI50 is 38.1 µM (inactive).
Turning to `CC(=O)C1COC(O)C1C` (configuration not stated), the GI50 in [1] was 23.9 µM (inactive); in assay [17] it was 22.8 µM (inactive); in assay [2], 17 µM (inactive); in assay [3], 28.3 µM (inactive); in assay [4], 38 µM (inactive); in [6] it was 18.5 µM. Besides, the GI50 is 29.4 µM (inactive) in assay [7]; 26.5 µM (inactive) in [8]; 16.4 µM (inactive) in assay [9]; 18.3 µM (inactive) in assay [10]; 20 µM (inactive) in assay [11]; 17.5 µM (inactive) in [16]. The GI50 in assay [18] is 15.3 µM (inactive); in assay [12], 31 µM (inactive); in assay [13] it was 20.7 µM (inactive); in [14], 11.5 µM (inactive); in assay [19], 14 µM (inactive); in [15], 17.7 µM (inactive).
Consider `C=CCN1C[C@H](C)N([C@H](c2ccc(C(=O)N(CC)CCO)cc2)c2cccc(OC)c2)C[C@H]1C`, for which the GI50 in assay [1] was > 100 µM (inactive); in [17] it was > 100 µM (inactive); in assay [2] it was 43.5 µM (inactive); in assay [3] it was > 100 µM (inactive); in assay [4], > 100 µM (inactive); in [6], above 100 µM. Besides, the GI50 in assay [7] was 47.6 µM (inactive); in assay [11], 38.6 µM (inactive); in [16] it was > 100 µM (inactive); in [18], > 100 µM (inactive); in assay [12], 71.8 µM (inactive); in assay [13], > 100 µM (inactive). Moreover, the GI50 is 51.3 µM (inactive) in assay [14], > 100 µM (inactive) in [19] and > 100 µM (inactive) in assay [15].
With `Oc1c(Br)cc(/C=C/c2cccc(/C=C/c3cc(Br)c(O)c(Br)c3)n2)cc1Br`, the GI50 is 6.38 µM (inactive) in assay [1]; 11.5 µM (inactive) in assay [17]; 14.6 µM (inactive) in assay [2]; < 0.01 µM (active) in assay [3]; 14.8 µM (inactive) in assay [4]; 6.5 µM (inactive) in [5]. The GI50 in [6] is 6.22 µM; in [7], 12.6 µM (inactive); in assay [8] it was 3.3 µM (inactive); in [9] it was 13.7 µM (inactive); in assay [10], 2.96 µM (inactive); in [11] it was 7.52 µM (inactive). The GI50 in assay [16] was 13.7 µM (inactive); in assay [18], 4.89 µM (inactive); in assay [12], 20.6 µM (inactive); in assay [13], 9.68 µM (inactive); in assay [14] it was 5.15 µM (inactive); in assay [19] it was 15.7 µM (inactive). Besides, the GI50 in assay [15] was 15.1 µM (inactive).
For `Cc1ccc(/C=C2\CN(C)CC3C2=NN(c2ccccc2)C3c2ccc(C)cc2)cc1` (configuration not stated), the GI50 is > 100 µM (inactive) in [1]; > 100 µM (inactive) in assay [17]; > 100 µM (inactive) in [2]; > 100 µM (inactive) in [3]; 76.7 µM (inactive) in assay [4]; > 100 µM (inactive) in assay [5]. Moreover, the GI50 was above 100 µM in assay [6]; > 100 µM (inactive) in assay [7]; 46.7 µM (inactive) in assay [8]; > 100 µM (inactive) in assay [9]; > 100 µM (inactive) in assay [10]; 38.9 µM (inactive) in assay [11]. Also, the GI50 in [20] is 34.4 µM (inactive); in assay [18], 29.4 µM (inactive); in [12], 63.8 µM (inactive); in [13] it was > 100 µM (inactive); in assay [19] it was > 100 µM (inactive); in assay [15], > 100 µM (inactive).
